Test results published in US5409817A, “Use of trans-sialidase and sialyltransferase for synthesis of sialylα2→3βgalactosides” (priority 1993, dated 1995).
Like-named read-outs stand apart in the source and are kept apart here.

Experiments:
[1] = target: T. crusi trans-sialidase (Trypanosoma cruzi, UniProt P23253); assay: Suitability as acceptor for the trans-sialidase; assay type: biochemical
Description: The third principal enzyme used here is the trans-sialidase of Trypanosoma crusi (T. crusi) whose isolation and reactivity was reported in Vendekerckhove et al., Glycobiology, 6:541 (1992). This enzyme is often referred to as the trans-sialidase, and has a broad specificity for transferring sialic acid from a wide variety of NeuAcα2→3βGal-containing donor oligosaccharides to the non-reducing terminus (end) of a narrower range oligosaccharide acceptors whose nonreducing terminal saccharide is a β-linked Gal. A sialic acid is not transferred from an α(2,6)-linked Gal.
Thus, using the α(2,3)sialyltransferase acceptors of Scheme 2 (Compounds 2a and 2b) as exemplary and keeping in mind the before-discussed structural preferences and requirements of the T. crusi trans-sialidase for an acceptor substrate, it is seen that Compound 2a that has a non-reducing terminal Galβ1→3GlcNAc linkage, whereas Compound 2b contains a Galβ1→3GalNAc linkage, neither of which is preferred for an acceptor for the trans-sialidase, and both are present in a catalytic amount.

[2] = system: α(2,3)sialyltransferases; assay: Suitability as substrate of α(2,3)sialyltransferases; assay type: biochemical; conditions: all known α(2,3)sialyltransferases
Description: First, the corresponding galactoside Compound 3 [Jansson et al., J. Org. […] Second, after protection of hydroxy and carboxylate groups and selective cleavage of 2-(trimethylsilyl)ethyl glycoside, the sialoside Compound 4 is readily converted to a disaccharide glycosyl donor that can be used in the block chemical synthesis of ganglioside GM4 and more complex sialosides [(a) Suguimoto et al., Tetrahedron Lett., 31:385 (1990); (b) Kameyama et al., Carbohydr. Res., 209 (1991)] as reported by others.

[3] = target: T1, α-(2,3)Sialyltransferase EC 2.4.99.4 (Sus scrofa, UniProt Q02745); conditions: acceptor for EC 2.4.99.4, cited from earlier work
T1 sequence (Q02745 1-343): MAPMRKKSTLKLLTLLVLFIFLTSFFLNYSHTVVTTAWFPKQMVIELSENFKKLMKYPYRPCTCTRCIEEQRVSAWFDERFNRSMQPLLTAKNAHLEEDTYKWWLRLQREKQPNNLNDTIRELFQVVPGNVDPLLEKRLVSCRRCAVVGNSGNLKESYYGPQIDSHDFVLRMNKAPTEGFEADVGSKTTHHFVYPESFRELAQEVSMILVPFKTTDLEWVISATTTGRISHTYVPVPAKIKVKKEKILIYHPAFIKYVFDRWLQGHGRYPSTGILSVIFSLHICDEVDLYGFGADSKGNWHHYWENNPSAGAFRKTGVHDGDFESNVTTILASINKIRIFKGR

[4] = target: T2, α-(2,3)Sialyltransferase EC 2.4.99.6 (Rattus norvegicus, UniProt Q02734); conditions: acceptor for EC 2.4.99.6, cited from earlier work
T2 sequence (Q02734 1-374): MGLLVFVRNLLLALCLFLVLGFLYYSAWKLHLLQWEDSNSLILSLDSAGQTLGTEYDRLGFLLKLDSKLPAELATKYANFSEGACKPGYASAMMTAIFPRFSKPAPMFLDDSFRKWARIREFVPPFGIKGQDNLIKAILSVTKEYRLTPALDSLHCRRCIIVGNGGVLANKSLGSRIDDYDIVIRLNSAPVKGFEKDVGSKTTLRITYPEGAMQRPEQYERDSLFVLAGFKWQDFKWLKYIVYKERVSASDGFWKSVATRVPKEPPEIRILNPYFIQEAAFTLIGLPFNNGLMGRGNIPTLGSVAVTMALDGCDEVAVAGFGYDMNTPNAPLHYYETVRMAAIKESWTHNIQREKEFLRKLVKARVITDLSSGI

[5] = value approximated from the data in Rearick et al.

Sequence of T. crusi trans-sialidase (P23253 whole entry): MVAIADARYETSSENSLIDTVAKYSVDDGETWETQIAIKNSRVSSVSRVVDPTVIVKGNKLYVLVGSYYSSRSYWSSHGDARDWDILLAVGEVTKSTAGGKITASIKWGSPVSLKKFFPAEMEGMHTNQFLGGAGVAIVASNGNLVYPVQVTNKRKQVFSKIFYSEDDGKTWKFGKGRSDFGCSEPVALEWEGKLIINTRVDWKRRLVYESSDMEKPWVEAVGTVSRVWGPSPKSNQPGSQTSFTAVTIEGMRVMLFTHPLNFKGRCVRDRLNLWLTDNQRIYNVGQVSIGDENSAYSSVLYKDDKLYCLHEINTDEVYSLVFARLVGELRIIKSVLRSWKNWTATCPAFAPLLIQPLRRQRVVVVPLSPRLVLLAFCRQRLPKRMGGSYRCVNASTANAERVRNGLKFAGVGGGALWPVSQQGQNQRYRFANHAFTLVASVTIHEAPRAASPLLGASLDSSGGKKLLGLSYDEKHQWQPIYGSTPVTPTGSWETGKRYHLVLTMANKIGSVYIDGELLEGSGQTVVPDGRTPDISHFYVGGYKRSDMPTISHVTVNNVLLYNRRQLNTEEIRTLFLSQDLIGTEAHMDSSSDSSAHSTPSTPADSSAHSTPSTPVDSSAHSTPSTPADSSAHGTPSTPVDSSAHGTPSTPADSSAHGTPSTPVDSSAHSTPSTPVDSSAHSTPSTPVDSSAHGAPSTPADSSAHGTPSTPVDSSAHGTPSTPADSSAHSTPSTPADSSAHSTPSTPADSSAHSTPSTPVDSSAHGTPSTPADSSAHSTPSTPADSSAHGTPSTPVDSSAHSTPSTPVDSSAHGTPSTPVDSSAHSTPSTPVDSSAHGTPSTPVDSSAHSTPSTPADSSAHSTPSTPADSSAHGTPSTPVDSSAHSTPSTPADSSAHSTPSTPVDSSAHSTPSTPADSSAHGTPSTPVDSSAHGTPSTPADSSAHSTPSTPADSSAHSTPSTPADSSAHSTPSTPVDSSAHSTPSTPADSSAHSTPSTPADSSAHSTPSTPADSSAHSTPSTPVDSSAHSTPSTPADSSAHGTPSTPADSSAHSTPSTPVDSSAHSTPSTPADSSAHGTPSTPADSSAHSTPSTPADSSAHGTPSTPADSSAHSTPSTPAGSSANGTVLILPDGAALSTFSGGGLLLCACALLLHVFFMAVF

Row | SMILES | Km /Vmax [3] [mM-units mg] | Km [4] [µM] | Km /Vmax [4] [mM-units mg] | further results
1 | CC(=O)N[C@H]1[C@H](O[C@H]2[C@@H](O)[C@@H](CO)O[C@@H](O[C@H]3[C@H](O)[C@@H](O)C(O)O[C@@H]3CO)[C@@H]2O)O[C@H](CO)[C@@H](O)[C@@H]1O[C@@H]1O[C@H](CO)[C@H](O)[C@H](O)[C@H]1O (some centres unmarked) [Compound 2a] |  |  |  | acceptor quality for the trans-sialidase [1]: relatively poor acceptors
2 | CC(=O)N[C@H]1[C@H](OCC[Si](C)(C)C)O[C@H](CO)[C@H](O)[C@@H]1O[C@@H]1O[C@H](CO)[C@H](O)[C@H](O)[C@H]1O [Compound 2b] |  |  |  | acceptor quality for the trans-sialidase [1]: relatively poor acceptors
3 | C[Si](C)(C)CCO[C@@H]1O[C@H](CO)[C@H](O)[C@H](O)[C@H]1O [Compound 3] |  |  |  | substrate quality for α(2,3)sialyltransferases [2]: poor substrate
4 | CC(=O)N[C@H]1C(O)O[C@H](CO)[C@H](O)[C@@H]1O[C@@H]1O[C@H](CO)[C@H](O)[C@H](O)[C@H]1O (some centres unmarked) [Galβ1→3GalNAc] | 0.024 |  |  | Km /Vmax ([4]; value approximated from the data in Weinstein et al.): > 10 mM-units mg
5 | CC(=O)N[C@H]1C(O)O[C@H](CO)[C@@H](O)[C@@H]1O[C@@H]1O[C@H](CO)[C@H](O)[C@H](O)[C@H]1O (some centres unmarked) [Galβ1→3GlcNAc] | 15 | 640 | 0.55 | 
6 | CC(=O)N[C@H]1C(O)O[C@H](CO)[C@@H](O[C@@H]2O[C@H](CO)[C@H](O)[C@H](O)[C@H]2O)[C@@H]1O (some centres unmarked) [Galβ1→4GlcNAc] | 382 | 2700 | 3.6 | 
7 | OC[C@H]1O[C@@H](O[C@H]2[C@H](O)[C@@H](O)C(O)O[C@@H]2CO)[C@H](O)[C@@H](O)[C@H]1O (some centres unmarked) [Galβ1→4Glc] | 290 |  | 10 | 
8 | CC(=O)N[C@H]1C(O)O[C@H](CO[C@@H]2O[C@H](CO)[C@H](O)[C@H](O)[C@H]2O)[C@@H](O)[C@@H]1O (some centres unmarked) [Galβ1→6GlcNAc] | 121 |  |  | 
9 | CO[C@@H]1O[C@H](CO)[C@H](O)[C@H](O)[C@H]1O [Galβ1→OCH3] |  |  |  | Km /Vmax [3, 5]: > 100 mM-units mg
10 | CC(=O)N[C@H]1[C@H](O[C@H]2[C@@H](O)[C@@H](CO)O[C@@H](O[C@H]3[C@H](O)[C@@H](O)C(O)O[C@@H]3CO)[C@@H]2O)O[C@H](CO)[C@@H](O[C@@H]2O[C@H](CO)[C@H](O)[C@H](O)[C@H]2O)[C@@H]1O (some centres unmarked) [lacto-N-neo-tetraose, Galβ1→4GlcNAcβ1→3Galβ1→4Glc] |  | 4220 | 4.3 | Km /Vmax [3, 5]: > 100 mM-units mg; Vmax [4]: 0.98 units/mg
11 | CC(=O)N[C@H]1[C@H](O[C@H]2[C@@H](O)[C@@H](CO)O[C@@H](O[C@H]3[C@H](O)[C@@H](O)C(O)O[C@@H]3CO)[C@@H]2O)O[C@H](CO)[C@@H](O)[C@@H]1O[C@@H]1O[C@H](CO)[C@H](O)[C@H](O)[C@H]1O (some centres unmarked) [lacto-N-tetraose, Galβ1→3GlcNAcβ1→3Galβ1→4Glc] | 7.5 | 90 | 0.09 | Km [3]: 27000 µM
